Measured values reported in US20180000085A1, “USE OF PICOLINAMIDE COMPOUNDS WITH FUNGICIDAL ACTIVITY” (DOW AGROSCIENCES LLC, priority 2014, published 2018).

Experiments:
Zymoseptoria tritici = test: Leaf blotch of wheat (SEPTTR) disease control on wheat seedlings; format: in vivo; parameters: key to SEPTTR 1DP, HV activity at 100 ppm (% control rating) / SEPTTR 3DC, HV activity at 100 ppm (% control rating) / SEPTTR disease control, 1DP / SEPTTR disease control, 3DC / SEPTTR 1DP disease control rating, HV activity / SEPTTR 3DC disease control rating, HV activity / SEPTTR 3DC, LV activity at 125.1 g/H (% Control rating) / SEPTTR 1DP, LV activity at 125.1 g/H (% Control rating) / SEPTTR 1DP disease control rating, LV activity at 125.1 g/H / SEPTTR 3DC disease control rating, LV activity at 125.1 g/H / SEPTTR 3DC disease control rating, HV activity at 100 ppm / SEPTTR 1DP disease control rating, HV activity at 100 ppm / HV activity at 100 ppm SEPTTR 3DC (disease control rating) / HV activity at 100 ppm SEPTTR 1DP (disease control rating) / LV activity at 125.1 g/H SEPTTR 1DP (disease control rating) / LV activity at 125.1 g/H SEPTTR 3DC (disease control rating): A: > 80; B: ≤ 80; C: Not Tested; D: No Activity Observed in the Reported Assay; settings: for SEPTTR 1DP, LV activity at 125.1 g/H (% Control rating) / SEPTTR 3DC, LV activity at 125.1 g/H (% Control rating): low volume application; for SEPTTR 1DP disease control rating, HV activity / SEPTTR 3DC disease control rating, HV activity: HV application at 100 ppm, wheat leaf blotch; for SEPTTR 1DP disease control rating, HV activity at 100 ppm: 1 day protectant; for SEPTTR 3DC disease control rating, HV activity at 100 ppm: 3 day curative
Puccinia triticina = test: Wheat brown rust (PUCCRT) disease control on wheat seedlings; format: in vivo; parameters: key to PUCCRT 3DC, HV activity at 100 ppm (% control rating) / PUCCRT disease control, 3DC / PUCCRT 1DP disease control rating, HV activity / PUCCRT 3DC disease control rating, HV activity / PUCCRT 3DC, LV activity at 125.1 g/H (% Control rating) / PUCCRT 1DP, LV activity at 125.1 g/H (% Control rating) / PUCCRT 3DC disease control rating, LV activity at 125.1 g/H / PUCCRT 1DP disease control rating, LV activity at 125.1 g/H / PUCCRT 3DC disease control rating, HV activity at 100 ppm / PUCCRT 1DP disease control rating, HV activity at 100 ppm / HV activity at 100 ppm PUCCRT 3DC (disease control rating) / LV activity at 125.1 g/H PUCCRT 1DP (disease control rating) / LV activity at 125.1 g/H PUCCRT 3DC (disease control rating): A: > 80; B: ≤ 80; C: Not Tested; D: No Activity Observed in the Reported Assay; settings: for PUCCRT 1DP, LV activity at 125.1 g/H (% Control rating) / PUCCRT 3DC, LV activity at 125.1 g/H (% Control rating): low volume application; for PUCCRT 1DP disease control rating, HV activity / PUCCRT 3DC disease control rating, HV activity: HV application at 100 ppm, wheat brown rust; for PUCCRT 1DP disease control rating, HV activity at 100 ppm: 1 day protectant; for PUCCRT 3DC disease control rating, HV activity at 100 ppm: 3 day curative
[1] = high volume application, 100 ppm
[2] = HV activity at 100 ppm, 1 Day Protectant, wheat
[3] = HV activity at 100 ppm, 3 Day Curative, wheat
[4] = high volume application, 100 ppm, 1DP
[5] = high volume application, 100 ppm, 3DC

SMILES	SEPTTR 1DP disease control rating, HV activity (Zymoseptoria tritici; 1 Day Protectant)	SEPTTR 3DC disease control rating, HV activity (Zymoseptoria tritici; 3 Day Curative)	PUCCRT 1DP disease control rating, HV activity (Puccinia triticina; 1 Day Protectant)	PUCCRT 3DC disease control rating, HV activity (Puccinia triticina; 3 Day Curative)	further results
CCC(CC)[C@@H](Oc1cc(F)ccc1F)[C@H](C)OC(=O)[C@H](C)NC(=O)c1nccc(OC)c1OCOC(C)=O [Cmpd 591]	–	–	–	–	SEPTTR 1DP, LV activity at 125.1 g/H (% Control rating) (Zymoseptoria tritici; 1 Day Protectant): B (≤ 80); SEPTTR 3DC, LV activity at 125.1 g/H (% Control rating) (Zymoseptoria tritici; 3 Day Curative): A (> 80); PUCCRT 1DP, LV activity at 125.1 g/H (% Control rating) (Puccinia triticina; 1 Day Protectant): A (> 80); PUCCRT 3DC, LV activity at 125.1 g/H (% Control rating) (Puccinia triticina; 3 Day Curative): A (> 80)
CCCOC(CC)C(Oc1ccccc1)C(C)OC(=O)C(NC(=O)c1nccc(OC)c1OC(C)=O)C(C)C (centres unmarked) [Cmpd 451]	B (≤ 80)	A (> 80)	A (> 80)	A (> 80)	–
CCC(CC)[C@@H](Oc1ccc(Cl)cc1Cl)[C@H](C)OC(=O)[C@@H](NC(=O)c1nccc(OC)c1O)C(C)C [Cmpd 408]	B (≤ 80)	D	B (≤ 80)	D	–
COc1ccnc(C(=O)N[C@@H](C)C(=O)O[C@@H](C)[C@H](Oc2ccc(C(F)(F)F)cc2)C(C)C)c1OC(C)=O [Cmpd 629]	–	–	–	–	SEPTTR 1DP, LV activity at 125.1 g/H (% Control rating) (Zymoseptoria tritici; 1 Day Protectant): B (≤ 80); SEPTTR 3DC, LV activity at 125.1 g/H (% Control rating) (Zymoseptoria tritici; 3 Day Curative): B (≤ 80); PUCCRT 1DP, LV activity at 125.1 g/H (% Control rating) (Puccinia triticina; 1 Day Protectant): A (> 80); PUCCRT 3DC, LV activity at 125.1 g/H (% Control rating) (Puccinia triticina; 3 Day Curative): A (> 80)
CCCOC(CC)C(Oc1ccccc1)C(C)OC(=O)C(NC(=O)c1nccc(OC)c1OCOC(C)=O)C(C)C (centres unmarked) [Cmpd 447]	A (> 80)	B (≤ 80)	A (> 80)	A (> 80)	–
COc1ccnc(C(=O)NC(C)C(=O)OC(C)C(OCC2CC2)c2ccccc2)c1O (centres unmarked) [Cmpd 825]	–	–	–	–	SEPTTR 1DP disease control rating, HV activity at 100 ppm (Zymoseptoria tritici; [1]): B (≤ 80); SEPTTR 3DC disease control rating, HV activity at 100 ppm (Zymoseptoria tritici; [1]): B (≤ 80); PUCCRT 1DP disease control rating, HV activity at 100 ppm (Puccinia triticina; [1]): A (> 80); PUCCRT 3DC disease control rating, HV activity at 100 ppm (Puccinia triticina; [1]): A (> 80)
CCC(CC)[C@@H](Oc1ccccc1)[C@H](C)OC(=O)CNC(=O)c1nccc(OC)c1O [Cmpd 307]	D	A (> 80)	A (> 80)	A (> 80)	–
CC[C@H](C)[C@H](NC(=O)c1nccc(OC)c1OC(C)=O)C(=O)O[C@@H](C)[C@H](Oc1cc(F)ccc1F)C(C)C [Cmpd 630]	–	–	–	–	SEPTTR 1DP, LV activity at 125.1 g/H (% Control rating) (Zymoseptoria tritici; 1 Day Protectant): D; SEPTTR 3DC, LV activity at 125.1 g/H (% Control rating) (Zymoseptoria tritici; 3 Day Curative): D; PUCCRT 1DP, LV activity at 125.1 g/H (% Control rating) (Puccinia triticina; 1 Day Protectant): A (> 80); PUCCRT 3DC, LV activity at 125.1 g/H (% Control rating) (Puccinia triticina; 3 Day Curative): A (> 80)
COc1ccnc(C(=O)N[C@@H](C)C(=O)O[C@@H](C)COC2CCCC2)c1O [Cmpd 340]	B (≤ 80)	D	B (≤ 80)	A (> 80)	–
COc1ccnc(C(=O)NC(C)C(=O)OC(C)C(Oc2ccccc2)C2CCCCC2)c1O (centres unmarked) [Cmpd 836]	–	–	–	–	SEPTTR 1DP disease control rating, HV activity at 100 ppm (Zymoseptoria tritici; [1]): A (> 80); SEPTTR 3DC disease control rating, HV activity at 100 ppm (Zymoseptoria tritici; [1]): A (> 80); PUCCRT 1DP disease control rating, HV activity at 100 ppm (Puccinia triticina; [1]): A (> 80); PUCCRT 3DC disease control rating, HV activity at 100 ppm (Puccinia triticina; [1]): A (> 80)
COc1ccnc(C(=O)N[C@@H](C)C(=O)O[C@@H](C)[C@@H](COc2ccccc2)Oc2ccccc2)c1O [Cmpd 315]	B (≤ 80)	B (≤ 80)	B (≤ 80)	A (> 80)	–
CCCOC(CC)C(Oc1ccccc1)C(C)OC(=O)C(CC(C)C)NC(=O)c1nccc(OC)c1O (centres unmarked) [Cmpd 291]	D	D	B (≤ 80)	D	SEPTTR disease control, 1DP (Zymoseptoria tritici; [2]): D; SEPTTR disease control, 3DC (Zymoseptoria tritici; [3]): D; SEPTTR 1DP, HV activity at 100 ppm (% control rating) (Zymoseptoria tritici; [4]): D; SEPTTR 3DC, HV activity at 100 ppm (% control rating) (Zymoseptoria tritici; [5]): D; PUCCRT disease control, 1DP (Puccinia triticina; [2]): B (≤ 80); PUCCRT disease control, 3DC (Puccinia triticina; [3]): D; PUCCRT 1DP, HV activity at 100 ppm (% control rating) (Puccinia triticina; [4]): B (≤ 80); PUCCRT 3DC, HV activity at 100 ppm (% control rating) (Puccinia triticina; [5]): D
